Test results: ChEMBL document CHEMBL1121488, “Effects of phosphonium compounds on Schistosoma mansoni” (1980)

Experiments:
Schistosoma mansoni [1] = test: Percentage reduction in carbachol response on Schistosoma mansoni; assay type: functional
Schistosoma mansoni [2] = test: Effect on the carbachol-induced paralytic response on Schistosoma mansoni at 10E-4 (phosphonium treated); assay type: functional; design: unit not given here
Schistosoma mansoni [3] = test: Probability that there was effect on carbachol response; assay type: functional
Schistosoma mansoni [4] = test: Probability that the compound had no effect on carbachol response; NS = no significant; assay type: functional, organism-based

Structure (SMILES) | Reduction (Schistosoma mansoni [1]) [%] | Activity (Schistosoma mansoni [2]) | Probability (Schistosoma mansoni [3]) | Probability (Schistosoma mansoni [4])
Br.Br.CCCCNCCC[PH](c1ccccc1)(c1ccccc1)c1ccccc1 | 22.8 | -70.3 | <0.001 | –
Br.Br.CCCCCCNCCC[PH](c1ccccc1)(c1ccccc1)c1ccccc1 | 62.4 | -35.4 | <0.0001 | –
[Br-].[Br-].c1ccc([P+](CC[P+](c2ccccc2)(c2ccccc2)c2ccccc2)(c2ccccc2)c2ccccc2)cc1 | 117.8 | 13.3 | <0.001 | –
Br.Br.CCCNCCC[PH](c1ccccc1)(c1ccccc1)c1ccccc1 | 0.97 | -71.7 | – | No significance
N#CCCC[P+](c1ccccc1)(c1ccccc1)c1ccccc1.[Br-] | 10.3 | -73 | – | No significance
Br.Br.CCCCCNCCC[PH](c1ccccc1)(c1ccccc1)c1ccccc1 | 58.2 | -31.8 | <0.001 | –
CC[P+](c1ccccc1)(c1ccccc1)c1ccccc1.[Br-] [ETHYLTRIPHENYLPHOSPHONIUM BROMIDE] | 27 | -63.8 | <0.02 | –
[Br-].[Br-].c1ccc([P+](CCCCCC[P+](c2ccccc2)(c2ccccc2)c2ccccc2)(c2ccccc2)c2ccccc2)cc1 | 94.3 | -4.6 | <0.001 | –
[Br-].[Br-].c1ccc([P+](CCC[P+](c2ccccc2)(c2ccccc2)c2ccccc2)(c2ccccc2)c2ccccc2)cc1 | 102.6 | 2 | <0.001 | –
[Br-].[Br-].c1ccc([P+](CCCCC[P+](c2ccccc2)(c2ccccc2)c2ccccc2)(c2ccccc2)c2ccccc2)cc1 | 76.1 | -19.7 | <0.001 | –
Br.Br.NCCCCC[PH](c1ccccc1)(c1ccccc1)c1ccccc1 | 13.1 | -81.3 | <0.05 | –
BrCCC[P+](c1ccccc1)(c1ccccc1)c1ccccc1.[Br-] | 45.3 | -35 | <0.01 | –
Br.Br.NCC[PH](c1ccccc1)(c1ccccc1)c1ccccc1 | 14.6 | -67.8 | – | No significance
[Br-].c1ccc(C[P+](c2ccccc2)(c2ccccc2)c2ccccc2)cc1 | 27.1 | -55.1 | <0.05 | –
Br.Br.CCNCCC[PH](c1ccccc1)(c1ccccc1)c1ccccc1 | 18.6 | -72 | <0.05 | –
